Test results published in PMC6881481, “Integrative Multi-Kinase Approach for the Identification of Potent Antiplasmodial Hits” (Frontiers in Chemistry, 2019).
Where two headings read alike, the source gives them in different places.

Assays:
[1] = system: P. falciparum 3D7 (sensitive) strain, asexual blood stage; test: Plasmodium growth inhibition by SYBR Green I, 3D7 strain; format: cell-based
Experimental: (§1) Parasite cultures (3D7 and Dd2 strains) were maintained in O^+ human erythrocytes in RPMI 1640 medium supplemented with 0.05 mg/mL gentamycin, 38.4 mM HEPES, 0.2% sodium bicarbonate, and 10% O^+ human serum as described before (Trager and Jensen, [1976]). To achieve a synchronic culture in the ring stage, two consecutive treatments at 48 h intervals with a 5% solution of D-sorbitol were done (Lambros and Vanderberg, [1979]).
(§2) Synchronized ring-stage (> 90%) infected erythrocytes were dispensed in duplicate into 96-well plates (0.5% parasitemia, 1% hematocrit) and incubated in dose response format with test compounds for 72 h. Chloroquine was used as an antimalarial control and uninfected erythrocytes as negative control. Then, in vitro susceptibility of parasite to tested drug was measured by SYBR Green (Hartwig et al., [2013]). Following incubation, the plates were frozen and thawed, and 100 μL of the culture were transferred to a new black 96-well plate containing 100 μL of lysis buffer (20 mM Tris, 5 mM EDTA, 0.008% wt/vol saponin, 0.08% vol/vol Triton X-100, and 0.4 μL/mL of SYBR Green). After 1 h, the fluorescence was measured at 490 nm excitation and 540 nm emission (CLARIOstar, Labtech BMG). […] The EC50 was calculated by plotting the Log doses vs. Inhibition (expressed as a percentage relative to the control) in Prism 6 (GraphPad Software Inc.). Each test was performed at least three independent experiments.

[2] = system: P. falciparum Dd2 (multi-drug-resistant) strain, asexual blood stage; test: Plasmodium growth inhibition by SYBR Green I, Dd2 strain; format: cell-based; conditions: read-out: EC50 Dd2
Experimental: as §1, §2

[3] = system: COS7 cells; test: Cytotoxicity assay (MTT reduction), COS7 cells; format: cell-based, monkey; conditions: for SI* (selectivity index between CC50 COS7 and EC50 3D7 strain): CC50 COS7 / EC50 3D7; for selectivity indices: mammalian cells vs 3D7 (abstract)
Experimental: (§3) The cytotoxicity was evaluated using two different lineages of mammalian cells: fibroblast-like cell lines derived from monkey kidney tissue (COS7 cells) and human hepatoma cell line (HEPG2). The cells were grown in 75 cm^2 flasks containing DMEM medium supplemented with 10% fetal bovine serum and 0.05 mg/mL gentamicin under a 5% CO2 atmosphere at 37°C. After harvest of cells, 100 μL aliquots were distributed in 96-well plates (1 x 10^4 cells per well) and incubated until adhesion (~12 h). The compounds at various concentrations (100−0.048 μM) were placed in the wells in duplicate and incubated for 72 h. The cell viability analysis were done by the MMT reduction method (3-[4,5-dimethyl-thiazol-2-yl]-2,5-diphenyltetrazolium […]), after the incubation period (Mosmann, [1983]). The optical density was determined at 570 nm (CLARIOstar, Labtech BMG) and the 50% cytotoxicity concentrations (CC50) were expressed as the percent viability relative to the control (untreated cells). The selectivity index of the compounds was determined through the ratio of the CC50 of both cytotoxicity results (COS7 and HEPG2 cells) and EC50 3D7, separately. Experiments were performed at least three times.

[4] = Cytotoxicity assay (MTT reduction), COS7 cells; format: cell-based, monkey; conditions: monkey, COS7 cells (fibroblast-like, monkey kidney); COS7 cells, 72 h, mean ± SD
Experimental: as §3

[5] = system: HEPG2 cells; test: Cytotoxicity assay (MTT reduction), HEPG2 cells; format: cell-based, human; conditions: CC50 HEPG2 / EC50 3D7
Experimental: as §3

[6] = Cytotoxicity assay (MTT reduction), HEPG2 cells; format: cell-based, human; conditions: human, HEPG2 cells (human hepatoma); HEPG2 cells, 72 h, mean ± SD
Experimental: as §3

[7] = system: P. berghei Ookluc line ookinete formation; test: Inhibition of P. berghei sexual stage progression (ookinete conversion, nLuc); format: cell-based; conditions: Plasmodium berghei, 24 h at 21°C, mean ± SD
Experimental: Balb/c mice were infected intraperitoneally with the P. berghei Ookluc line (Calit et al., [2018]). Four to five days after infection, the infected blood was collected by cardiac puncture and 4 μL were seeded to a volume of 80 μL of ookinete medium (Blagborough et al., [2013]), at 21°C, containing 10 μM of compounds or DMSO vehicle control. After 24h incubation at 21°C, the nLuc substrate (Nano-Glo, Promega) was added to each well 1:1 (v:v) and incubated for 5 min at 37°C. The luciferase activity was measured using a plate luminometer SpectraMax i3; Molecular Devices and the % of conversion inhibition were calculated relative to the luciferase activity in the control assays. This assay was approved by the Ethics Committee (protocol number 132/2014-CEUA) of the Institute of Biomedical Sciences—University of São Paulo.

[8] = system: P. falciparum CDPK1; set-up: method as in ref Crowther et al., 2016; National Center for Biotechnology Information, 2016a; conditions: query of shape-based model, ref Crowther et al., 2016, National Center for Biotechnology Information, 2016a; cited from earlier work
[9] = system: P. falciparum PK6; set-up: method as in ref Crowther et al., 2016; National Center for Biotechnology Information, 2016c; conditions: query of shape-based model, ref Crowther et al., 2016, National Center for Biotechnology Information, 2016c; cited from earlier work
[10] = system: P. falciparum CDPK4; set-up: method as in ref Crowther et al., 2016; National Center for Biotechnology Information, 2016b; conditions: query of shape-based model, ref Crowther et al., 2016, National Center for Biotechnology Information, 2016b; cited from earlier work
[11] = 3D7, both sensitive and multi-drug resistant P. falciparum strains (abstract), read-out: EC50 (antiplasmodial activity)
[12] = 3D7 / DD2, both 3D7 and Dd2 strains, summary bound, read-out: EC50 (3D7 and Dd2 strains)
[13] = 3D7 strain, 72 h, mean ± SD of three independent assays, read-out: EC50 3D7
[14] = Dd2 strain, 72 h, mean ± SD of three independent assays

| SMILES | SI* (selectivity index between CC50 COS7 and EC50 3D7 strain) [3] | CC50 at 72 h [4] | EC50 [1, 13] | EC50 [2, 14] | SI** (selectivity index between CC50 HEPG2 and EC50 3D7 strain) [5] | CC50 at 72 h [6] | inhibition at 10 µM [7] | other results |
| --- | --- | --- | --- | --- | --- | --- | --- | --- |
| CCN(CC)CCCC(C)Nc1ccnc2cc(Cl)ccc12 (stereo not drawn) [Chloroquine, reference compound] | – | – | – | – | – | – | – | EC50 ([1]; 3D7, 72 h, read-out: EC50 3D7): 0.02 ± 0.01 µM; EC50 ([2]; DD2, 72 h): 0.15 ± 0.04 µM |
| c1ccc2c(NCC3CCCO3)nc(Nc3ccc4c(c3)OCO4)nc2c1 (stereo not drawn) [LabMol-181] | 46.90 | 18.3 ± 1.92 µM | 0.39 ± 0.06 µM | 0.4 ± 0.1 µM | 15.72 | 6.13 ± 2.05 µM | 51.8 ± 23.2% | selectivity indices [3]: > 15 folds; EC50 [1, 11]: ≤ 0.7 µM; EC50 [1, 12]: < 1 µM |
| CCn1c(-c2nonc2N)nc2c(-c3cccc(NC(=O)Nc4cccc(C(F)(F)F)c4)c3)ncc(OCCCN)c21 [SID 307073749] | – | – | – | – | – | – | – | IC50 [8]: 0.015 µM |
| CC(O)c1cccc(Nc2nc(NCc3ccco3)c3ccccc3n2)c1 (stereo not drawn) [LabMol-172] | 28.16 | 12.1 ± 1.44 µM | 0.43 ± 0.08 µM | 0.48 ± 0.17 µM | 23.74 | 10.2 ± 5.53 µM | 8.59 ± 13% | selectivity indices [3]: > 15 folds; EC50 [1, 11]: ≤ 0.7 µM; EC50 [1, 12]: < 1 µM |
| CNC(=O)c1ccccc1Nc1nc(Nc2ccc(N3CCOCC3)cc2)ncc1Cl [SID 307071719] | – | – | – | – | – | – | – | IC50 [9]: 0.042 µM |
| Cc1[nH]c(/C=C2\C(=O)Nc3ccc(S(=O)(=O)Cc4c(Cl)cccc4Cl)cc32)c(C)c1C(=O)N1CCC[C@@H]1CN1CCCC1 [SID 307068815] | – | – | – | – | – | – | – | IC50 [10]: 0.021 µM |
| COc1ccc(Nc2nc(C)c(N)c(Nc3ccc(OC)cc3)n2)cc1 [LabMol-170] | 6.66 | 7.59 ± 4.09 µM | 1.14 ± 0.2 µM | 2.02 ± 0.36 µM | 4.76 | 5.43 ± 2.39 µM | 11.2 ± 19.5% | – |
| CC(Nc1nc(N2CCNCC2)nc2ccccc12)c1ccccc1 (stereo not drawn) [LabMol-176] | 30.33 | 34.9 ± 4.06 µM | 1.15 ± 0.26 µM | 1.71 ± 0.4 µM | 4.90 | 5.63 ± 1.51 µM | 20.5 ± 19.4% | – |
| Cc1cc(NCCCN2CCN(C)CC2)nc(-c2ccccc2O)n1 [LabMol-174] | – | – | > 5 µM | – | – | – | 21.4 ± 36.7% | – |
| CN1CCN(CCC2CCCCN2Cc2ccnc3ccccc23)CC1 (stereo not drawn) [LabMol-173] | – | – | > 5 µM | – | – | – | 0% | – |
| O=C(NCCCN1CCCCC1)c1ccc(Nc2nccc(Nc3ccc(Oc4ccccc4)cc3)n2)cc1 [SID 307076176] | – | – | – | – | – | – | – | IC50 [8]: 0.094 µM |
| CC(O)c1cccc(Nc2nc(NCCO)c3ccccc3n2)c1 (stereo not drawn) [LabMol-171] | 138.26 | 48.4 ± 14 µM | 0.35 ± 0.08 µM | 0.7 ± 0.41 µM | 55.17 | 19.3 ± 3.69 µM | 70 ± 22.2% | selectivity indices [3]: > 15 folds; EC50 [1, 11]: ≤ 0.7 µM; EC50 [1, 12]: < 1 µM |
| Cc1ccc(-c2nc(NCc3cnc(C)cn3)ncc2-c2ccc(N)nc2)cc1 [LabMol-177] | – | – | > 5 µM | – | – | – | 8.76 ± 15.2% | – |
| O=C(NCCO)c1cccc(Nc2nc(-c3ccccc3)c3cc(Cl)ccc3n2)c1 [LabMol-175] | – | – | > 5 µM | – | – | – | 12.9 ± 22.3% | – |
| CC(C)(CN)c1nc(-c2ccc(Cl)c(O)c2)c(-c2ccnc(N)n2)[nH]1 [SID 307078537] | – | – | – | – | – | – | – | IC50 [8]: 0.007 µM |
| COc1ccc(Nc2nc(Nc3ccc([N+](=O)[O-])cc3)nc(OC)n2)cc1 [LabMol-169] | 5.09 | 44.6 ± 3.73 µM | 8.77 ± 2.2 µM | 3.4 ± 1.68 µM | 2.27 | 19.9 ± 2.26 µM | 8.58 ± 7.62% | – |
